Source: article PMC11109052, “Metabolism characterization and toxicity of N-hydap, a marine candidate drug for lung cancer therapy by LC–MS method” (Natural Products and Bioprospecting, 2024)

What was measured:
[1] = system: SCLC; parameters: method as in PMID 33683919; settings: 3rd-line therapy of SCLC; cited from earlier work
[2] = system: other UGT isoforms; assay: Incubation with recombinant human UGT isoforms: other isoforms; type: in vitro ADME; settings: recombinant UGT 2 μg/mL
Procedure: Incubation of N-hydap (2.5 μM) with eight recombinant human CYP enzymes (CYP1A2, CYP2B6, CYP2C9, CYP2C19, CYP2D6, CYP3A4, CYP4A11 and CYP4F2) at three enzyme concentrations (2, 4, and 20 μg/mL) was conducted following the same procedure as described above for microsomes. Subsequently, incubation with N-hydap (1, 2.5, and 6 μM) and twelve recombinant human UGT isoforms (UGT1A1, UGT1A3, UGT1A4, UGT1A6, UGT1A7, UGT1A8, UGT1A9, UGT1A10, UGT2B4, UGT2B7, UGT2B15 and UGT2B17) was performed, with the enzyme concentration used at 2 μg/mL. All reactions were carried out in triplicate.

[3] = system: HLMs; assay: Kinetics of N-hydap glucuronidation in HLMs; type: in vitro ADME, human; settings: HLM
Procedure: (§1) Various microsomes including HLMs, HKMs, HIMs, RLMs, RKMs, MLMs and MKMs were involved in CYP and UGT reactions of N-hydap. A typical CYP incubation mixture included 0.5 mg/mL microsomes protein, 3.3 mM glucose-6-phosphate, 3.3 mM MgCl2, 0.4 U/mL glucose-6-phosphate dehydrogenase, and N-hydap (1, 2.5, or 10 μM) in the 50 mM potassium phosphate buffer (KPI, pH 7.4). The incubation mixture was preincubated at 37 °C for 5 min, and the reaction was started by adding NADP to form a NADPH-regenerating system. Simultaneously, the classic UGT reaction system consisted of 50 mM KPI, 5 mM MgCl2, 0.5 mg/mL microsomes, 0.125 mg/mL alamethicin, and 5.25 mg/mL saccharolactone. The reaction was initiated after supplying UDPGA. The CYP and UGT mixtures were incubated at 37 °C in a shaking water bath (80 rpm) for 1.5 h to enhance metabolite formation. To terminate the reaction, an ice-cold solution of Tes (50 ng/mL, dissolved in methanol and used as an internal standard) was added to half of the mixture volume. […]
(§2) The substrate concentrations used for HLMs were 0.05, 0.5, 2, 2.5, 5, 10, 25, 50, and 100 μM. […] The rates of N-hydap-G by enzymes were expressed as nmol/mg/min, representing the amount of metabolites formed per minute per milligram of protein. Kinetic parameters were determined by analyzing the Eadie–Hofstee plots. […]

[4] = system: HKMs; assay: Kinetics of N-hydap glucuronidation in HKMs; type: in vitro ADME, human; settings: HKM
Procedure: as §1, §2

[5] = system: HIMs; assay: Kinetics of N-hydap glucuronidation in HIMs; type: in vitro ADME, human; settings: HIM
Procedure: as §1, §2

[6] = system: RLMs; assay: Kinetics of N-hydap glucuronidation in RLMs; type: in vitro ADME, rat; settings: RLM
Procedure: (§3) In this study, the rats were executed by drawing blood from the abdominal aorta and mice were sacrificed with cervical dislocation before the liver and kidneys were excised. The liver and kidneys were removed, and washed with chilled cleansing solution (contains 8 mM KH2PO4, 5.6 mM EDTA·K2·2H2O, 1 mM DTT and 229.6 μM PMSF), homogenized in a tissue homogenate buffer with a pH of 7.4, (consisting of […], 8 mM K2HPO4, 250 mM sucrose, 1 mM EDTA·K2·2H2O and 229.6 μM PMSF). Subsequently, the homogenate was centrifuged at 10,400 rpm at 4 °C for 15 min, and the supernatant was then centrifuged at 35,000 rpm at 4 °C for 60 min. A 250 mM sucrose buffer was added to the pellet to reconstitute and the resuspension was stored at − 80 °C until use. Microsome protein concentrations were measured by Omni-Easy™ Instant BCA Protein Assay Kit.
(§4) Various microsomes including HLMs, HKMs, HIMs, RLMs, RKMs, MLMs and MKMs were involved in CYP and UGT reactions of N-hydap. […]
as §2

[7] = system: RKMs; assay: Kinetics of N-hydap glucuronidation in RKMs; type: in vitro ADME, rat; settings: RKM
Procedure: as §3, §4, §2

[8] = system: MLMs; assay: Kinetics of N-hydap glucuronidation in MLMs; type: in vitro ADME, mouse; settings: MLM
Procedure: as §3, §4, §2

[9] = system: MKMs; assay: Kinetics of N-hydap glucuronidation in MKMs; type: in vitro ADME, mouse; settings: MKM
Procedure: as §3, §4, §2

[10] = target: T1, UGT1A1 (Homo sapiens, UniProt P22309); assay: Kinetics of N-hydap glucuronidation by recombinant UGT1A1; type: in vitro ADME
T1 construct: purchased Cypex (Scotland, UK)

[11] = target: T2, UGT1A3 (Homo sapiens, UniProt P35503); assay: Kinetics of N-hydap glucuronidation by recombinant UGT1A3; type: in vitro ADME
T2 construct: purchased Cypex (Scotland, UK)

[12] = Pharmacokinetics studies in mice (plasma); type: in vivo; settings: mice
Procedure: Mice were fasted for 12 h with access to water before drug administration. N-Hydap was dissolved in a solution containing 50% methanol and water. Before administration, the drug was diluted with PBS to achieve concentrations of 5 mg/kg and 2 mg/kg for gastric gavage and tail vein administration, respectively. Blood samples (120 μL) were collected from the orbital venous plexus at 2, 5, 10, 15, 30, 60, 90, 120, 180, and 240 min after N-hydap administration. The blood samples were collected into heparinized micro-centrifuge tubes and immediately centrifuged at 8000 rpm for 5 min at 4 °C. Plasma samples were prepared by adding an internal standard (IS) solution, Tes to the samples, followed by vortexing. The mixtures were then centrifuged at 4 °C and 13,000 rpm for 15 min. The resulting supernatant was dried under vacuum for 3–4 h, and the dry powder was reconstituted with a solution of 50% methanol and water. Finally, the plasma samples were analyzed using LC–MS, following the previously described method.
DAS 2.0 was used to calculate pharmacokinetic parameters using the standard non-compartmental method. All results were presented as mean ± standard deviation and significant differences were analyzed using One-way ANOVA by GraphPad Prism 8. Statistical significance was defined as p < 0.05.

[13] = Distribution studies in mice organs; type: in vivo; settings: 30 min and 4 h
Procedure: The heart, liver, spleen, lungs and kidneys were removed from mice after administering a dose of 5 mg/kg through oral gavage and 2 mg/kg through tail vein injection at 30 min and 240 min, followed by homogenization with normal saline. The resulting homogenate was centrifuged at 4 °C, 13,000 rpm for 20 min, and the supernatant was then mixed with the internal standard by vortexing. The mixtures were centrifuged at 4 °C, 13,000 rpm for 15 min. The resulting supernatant was then subjected to vacuum drying for 3–4 h. Lastly, the dried powder was reconstituted with a mixture of 50% methanol and water, and then centrifuged for LC–MS testing.

[14] = parameters: method as in PMID 17513814; settings: 2nd-line therapy of SCLC; cited from earlier work
[15] = substrate: CC1CCC2C(C=CC(C)C2C(=O)c2c(O)c(C3(O)CCC(O)C4OC43)cn(O)c2=O)C1; assay: Kinetics of N-hydap glucuronidation by recombinant UGT1A1; type: in vitro ADME, human; settings: other: glucuronidation, pH 7.4, 37.0 °C
[16] = substrate: CC1CCC2C(C=CC(C)C2C(=O)c2c(O)c(C3(O)CCC(O)C4OC43)cn(O)c2=O)C1; assay: Kinetics of N-hydap glucuronidation by recombinant UGT1A3; type: in vitro ADME, human; settings: other: glucuronidation, pH 7.4, 37.0 °C

## nivolumab: 3rd-line therapy for SCLC
[1]
  overall survival: does not prolong overall survival

## CC1CCC2C(C=CC(C)C2C(=O)c2c(O)c(C3(O)CCC(OC4OC(C(=O)O)C(O)C(O)C4O)C4OC43)cn(O)c2=O)C1 (stereo not shown) [N-hydap-G]
[2]
  glucuronide detected after incubation with other UGT isoforms: negligible amount
[3]
  Vmax: 5.126 ± 1.27 peak area ratio/min/mg
[4]
  Vmax: 7.210 ± 0.72 peak area ratio/min/mg
[5]
  Vmax: 1.020 ± 0.066 peak area ratio/min/mg
[6]
  Vmax: 0.0567 ± 0.0014 peak area ratio/min/mg
[7]
  Vmax: 0.8051 ± 0.052 peak area ratio/min/mg
[8]
  Vmax: 13.46 ± 1.32 peak area ratio/min/mg
[9]
  Vmax: 3.313 ± 0.51 peak area ratio/min/mg
[10]
  Vmax: 4.596 ± 0.37 peak area ratio/min/mg
[11]
  Vmax: 10.07 ± 0.98 peak area ratio/min/mg
[12]; after oral administration of N-hydap 5 mg/kg
  highest concentration in plasma, Rate (Am/Ai): 1.632
[12]; after tail vein injection of N-hydap 2 mg/kg
  highest concentration in plasma, Rate (Am/Ai): 0.085
[12]; 1.632/0.085/2.5
  maximum plasma concentration after oral gavage relative to intravenous injection, dose-corrected: 7.68 times
[13]; oral 5 mg/kg
  total distribution ratio, heart: 2.61%
  total distribution ratio, kidneys: 17.64%
  total distribution ratio, liver: 70.86%
  total distribution ratio, lungs: 7.33%
  total distribution ratio, spleen: 1.56%
[13]; tail vein injection 2 mg/kg
  total distribution ratio, heart: 11.92%
  total distribution ratio, kidneys: 16.73%
  total distribution ratio, liver: 56.90%
  total distribution ratio, lungs: 9.14%
  total distribution ratio, spleen: 5.31%

## CC[C@@]1(O)C(=O)OCc2c1cc1n(c2=O)Cc2cc3c(CN(C)C)c(O)ccc3nc2-1 [topotecan]
[14]
  grade 3/4 anemia: 31%
  neutropenia: 64%
  thrombocytopenia: 18%

B1: UGT1A1 (Homo sapiens) (protein)
chain: HAGKILLIPVDGSHWLSMLGAIQQLQQRGHEIVVLAPDASLYIRDGAFYTLKTYPVPFQREDVKESFVSLGHNVFENDSFLQRVIKTYKKIKKDSAMLLSGCSHLLHNKELMASLAESSFDVMLTDPFLPCSPIVAQYLSLPTVFFLHALPCSLEFEATQCPNPFSYVPRPLSSHSDHMTFLQRVKNMLIAFSQNFLCDVVYSPYATLASEFLQREVTVQDLLSSASVWLFRSDFVKDYPRPIMPNMVFVGGINCLHQNPLSQEFEAYINASGEHGIVVFSLGSMVSEIPEKKAMAIADALGKIPQTVLWRYTGTRPSNLANNTILVKWLPQNDLLGHPMTRAFITHAGSHGVYESICNGVPMVMMPLFGDQMDNAKRMETKGAGVTLNVLEMTSEDLENALKAVINDKSYKENIMRLSSLHKDRPVEPLDLAVFWVEFVMRHKGAPHLRPAAHDLTWYQYHSLDVIGFLLAVVLTVAFITFKCCAYGYRKCLGKKGRVKKAHKSKTH
notes: purchased Cypex (Scotland, UK)
[15]
  Km: 46.43 µM
  Vmax/Km: 99.0 µL/min/mg

B2: UGT1A3 (Homo sapiens) (protein)
chain: GKVLVVPIDGSHWLSMREVLRELHARGHQAVVLTPEVNMHIKEENFFTLTTYAISWTQDEFDRHVLGHTQLYFETEHFLKKFFRSMAMLNNMSLVYHRSCVELLHNEALIRHLNATSFDVVLTDPVNLCAAVLAKYLSIPTVFFLRNIPCDLDFKGTQCPNPSSYIPRLLTTNSDHMTFMQRVKNMLYPLALSYICHAFSAPYASLASELFQREVSVVDILSHASVWLFRGDFVMDYPRPIMPNMVFIGGINCANRKPLSQEFEAYINASGEHGIVVFSLGSMVSEIPEKKAMAIADALGKIPQTVLWRYTGTRPSNLANNTILVKWLPQNDLLGHPMTRAFITHAGSHGVYESICNGVPMVMMPLFGDQMDNAKRMETKGAGVTLNVLEMTSEDLENALKAVINDKSYKENIMRLSSLHKDRPVEPLDLAVFWVEFVMRHKGAPHLRPAAHDLTWYQYHSLDVIGFLLAVVLTVAFITFKCCAYGYRKCLGKKGRVKKAHKSKTH
notes: as for B1
[16]
  Km: 10.68 µM
  Vmax/Km: 942.9 µL/min/mg
